How the values were obtained:
[1] = tested on: carrageenin-induced edema; test: Carrageenin-induced edema (antiinflammatory) assay, rat hind paw; type: in vivo, rat (Long Evans strain, male); settings: for ED50: 3 h, oral, dose which reduced edema formation by about 25% or more vs. mean control response in 50% of the animals; for inhibition in vivo at 200 mg/kg: 200 mg/kg oral
Method: The procedure employed is a modification of the method of Winter et al., Proc. Soc. Exptl. Biol. Med., 111:544 (1962). The device used for measurement of the paw volume is an adaptation of the water displacement procedure described by Adamkiewicz et al., Can. J. Biochem. Physiol., 33:332 (1955). Test compounds were administered orally, one hour prior to the intraplanter injection of 0.05 mL. of sterile 1.0% solution of carrageenin into the left hind paw of male rats (Long Evans strain) weighing between about 130-200 g. At peak swelling time (3 hrs.) the volume of edema was calculated by differential paw volumes.
Selected compounds of the invention were further tested to determine their ED50 values. The ED50 value is defined as that dose which reduced edema formation by about 25% or more compared with the mean control response (parallel run) in 50% of the animals. Typical results of these tests appear in Table II.

phenylquinone writhing = test: Phenylquinone writhing test (analgesic assay); type: in vivo, mouse (Carworth CF1, male); settings: for Phenylquinone Writhing Assay (% Control), percent analgesia, 15 min.: 15 min. after administration; for Phenylquinone Writhing Assay (% Control), percent analgesia, 30 min.: 30 min. after administration; for Phenylquinone Writhing Assay (% Control), percent analgesia, 60 min.: 60 min. after administration
Method: Phenylquinone writhing test was employed to evaluate analgesic activity for selected compounds for the present invention according to the following procedure:
Phenylquinone (phenyl-p-benzoquinone, No. 7104, Eastman Organic Chemicals) is made up as a 0.02% aqueous solution and 5% ethyl alcohol. Phenylquinone solutions are made up fresh twice daily. Standard reference agents and the test compounds are dissolved or suspended in a 0.25% methylcellulose solution. A control group consisting of 10 mice (Carworth CF1 male mice) are administered the 0.02% phenylquinone solution at a dose of 0.25 mL./mouse. The mice are housed individually and observed closely for 10 min. for exhibition of writhing. The onset of writhing occurs within 3 min. and 100% of the mice must writh within 10 min. Test compounds are administered orally to groups of 10 mice. The volume given is 0.01 mL. per gram of body weight. Activity can be studied at 15, 30, 60 and 120 min. after oral administration. After the designated time interval of a dose group has elapsed, the mice are challenged with phenylquinone intraperitoneally. Complete blocking of the writhing syndrome for the 10-min. observation period in any one mouse is considered a positive analgesic response for that mouse. Conversely, if any mouse wriths definitely once, it is considered not to be protected. The number of mice not writhing in a group multiplied by 10 equals percent analgesia for that dose at the time interval.

[2] = Rattus norvegicus, 1 hour before carrageenin, edema at peak swelling time (3 hrs.), read-out: % Reduction of Edema

For CC(C)c1nnc2nc(-c3ccccc3)c(-c3ccccc3)nn12 [Example 23, 1,2,4-triazolo[4,3-b]-1,2,4-triazine, 3-isopropyl-5,6-diphenyl], the ED50 ([1]; Rattus norvegicus) was 30 mg/kg and the inhibition in vivo at 200 mg/kg [1, 2] was 37%.

Cc1nc2nnc(C)n2nc1C [Example 25, 1,2,4-triazolo[4,3-b]-1,2,4-triazine, 3,6,7-trimethyl] showed an inhibition in vivo at 200 mg/kg [1, 2] of 49%.

Cc1nnc2nc(-c3ccccc3)cnn12 [Example 12, 1,2,4-triazolo[4,3-b]-1,2,4-triazine, 3-methyl-7-phenyl] was tested, and the inhibition in vivo at 200 mg/kg [1, 2] was 70%.

Cc1nnc2nc(-c3ccccc3)c(-c3ccccc3)nn12 [Example 9, 1,2,4-triazolo[4,3-b]-1,2,4-triazine, 3-methyl-6,7-diphenyl] was tested, and the inhibition in vivo at 200 mg/kg [1, 2] was 35%.

Work on COCc1nnc2nc(-c3ccccc3)cnn12 [Example 2, 1,2,4-triazolo[4,3-b]-1,2,4-triazine, 3-methoxymethyl-7-phenyl] yielded an inhibition in vivo at 200 mg/kg [1, 2] of 26%.

CC(C)c1nnc2nc(-c3ccc(Cl)c(Cl)c3)cnn12 [Example 6, 1,2,4-triazolo[4,3-b]-1,2,4-triazine, 3-isopropyl-7-(3',4'-dichlorophenyl)] gave an inhibition in vivo at 200 mg/kg [1, 2] of 33%.

Compound Oc1nnc2nc(-c3ccccc3)cnn12 [Example 3, 1,2,4-triazolo[4,3-b]-1,2,4-triazine, 3-hydroxy-7-phenyl] has an inhibition in vivo at 200 mg/kg [1, 2] of 22%.

Clc1ccccc1-c1cnn2cnnc2n1 [Example 36, 1,2,4-triazolo[4,3-b]-1,2,4-triazine, 7-(2'-chlorophenyl)] gave an inhibition in vivo at 200 mg/kg [1, 2] of 65%.

In the case of Clc1ccc(-c2cnn3cnnc3n2)cc1Cl [Example 7, 1,2,4-triazolo[4,3-b]-1,2,4-triazine, 7-(3',4'-dichlorophenyl)], the “Phenylquinone Writhing Assay (% Control), percent analgesia, 15 min.” value (phenylquinone writhing; 100 mg/kg oral) was 30%, the “Phenylquinone Writhing Assay (% Control), percent analgesia, 30 min.” value (phenylquinone writhing; 100 mg/kg oral) was 50% and the “Phenylquinone Writhing Assay (% Control), percent analgesia, 60 min.” value (phenylquinone writhing; 100 mg/kg oral) was 30%. It also gave an ED50 ([1]; Rattus norvegicus) of 1 mg/kg and an inhibition in vivo at 200 mg/kg [1, 2] of 36%.

Clc1cccc(-c2cnn3cnnc3n2)c1 [Example 28, 1,2,4-triazolo[4,3-b]-1,2,4-triazine, 7-(3'-chlorophenyl)] gave an inhibition in vivo at 200 mg/kg [1, 2] of 21%.

FC(F)(F)c1nnc2nc(-c3ccccc3)cnn12 [Example 15, 1,2,4-triazolo[4,3-b]-1,2,4-triazine, 3-trifluoromethyl-7-phenyl] gave an inhibition in vivo at 200 mg/kg [1, 2] of 30%.

For CC(C)c1nnc2nc(-c3ccccc3)cnn12 [Example 4, 1,2,4-triazolo[4,3-b]-1,2,4-triazine, 3-isopropyl-7-phenyl], the “Phenylquinone Writhing Assay (% Control), percent analgesia, 15 min.” value (phenylquinone writhing; 100 mg/kg oral) was 10%, the “Phenylquinone Writhing Assay (% Control), percent analgesia, 30 min.” value (phenylquinone writhing; 100 mg/kg oral) was 20% and the “Phenylquinone Writhing Assay (% Control), percent analgesia, 60 min.” value (phenylquinone writhing; 100 mg/kg oral) was 20%. For the same compound, the inhibition in vivo at 200 mg/kg [1, 2] was 18%.

COCc1nnc2nc(-c3ccc(C)cc3)cnn12 [Example 8, 1,2,4-triazolo[4,3-b]-1,2,4-triazine, 3-methoxymethyl-7-(4'-methylphenyl)] was tested, and the “% Reduction of Edema” value ([1]; 100 mg/kg oral, 1 hour before carrageenin, edema at peak swelling time (3 hrs.)) was 16%.

In the case of c1ccc(-c2cnn3cnnc3n2)cc1 [Example 13, 1,2,4-triazolo[4,3-b]-1,2,4-triazine, 7-phenyl], the “Phenylquinone Writhing Assay (% Control), percent analgesia, 15 min.” value (phenylquinone writhing; 50 mg/kg oral) was 20%, the “Phenylquinone Writhing Assay (% Control), percent analgesia, 30 min.” value (phenylquinone writhing; 50 mg/kg oral) was 20% and the inhibition in vivo at 175 mg/kg ([1]; Rattus norvegicus, 175 mg/kg oral, 1 hour before carrageenin, edema at peak swelling time (3 hrs.), read-out: % Reduction of Edema) was 82%.

CCc1nnc2nc(-c3ccccc3)cnn12 [Example 5, 1,2,4-triazolo[4,3-b]-1,2,4-triazine, 3-ethyl-7-phenyl] was tested, and the “Phenylquinone Writhing Assay (% Control), percent analgesia, 15 min.” value (phenylquinone writhing; 100 mg/kg oral) was 30%, the “Phenylquinone Writhing Assay (% Control), percent analgesia, 30 min.” value (phenylquinone writhing; 100 mg/kg oral) was 30% and the “Phenylquinone Writhing Assay (% Control), percent analgesia, 60 min.” value (phenylquinone writhing; 100 mg/kg oral) was 70%. It also gave an ED50 ([1]; Rattus norvegicus) of 100 mg/kg and an inhibition in vivo at 200 mg/kg [1, 2] of 40%.

In the case of c1ccc(-c2nc3nncn3nc2-c2ccccc2)cc1 [Example 22, 1,2,4-triazolo[4,3-b]-1,2,4-triazine, 6,7-diphenyl], the inhibition in vivo at 200 mg/kg [1, 2] was 32%.

With Cc1nnc2nc(-c3ccccc3Cl)cnn12 [Example 26, 1,2,4-triazolo[4,3-b]-1,2,4-triazine, 3-methyl-7-(2'-chlorophenyl)] the inhibition in vivo at 200 mg/kg [1, 2] was 56%.

With Clc1ccc(-c2cnn3cnnc3n2)cc1 [Example 10, 1,2,4-triazolo[4,3-b]-1,2,4-triazine, 7-(4'-chlorophenyl)] the ED50 ([1]; Rattus norvegicus) was 10 mg/kg and the inhibition in vivo at 200 mg/kg [1, 2] was 27%.

With Cc1nnc2nc(-c3cccc(Cl)c3)cnn12 [Example 1, 1,2,4-triazolo[4,3-b]-1,2,4-triazine, 3-methyl-7-(3-chlorophenyl)] the ED50 ([1]; Rattus norvegicus) was 30 mg/kg and the inhibition in vivo at 200 mg/kg [1, 2] was 39%.
